Reference: PMC9469100, “Turning Nonselective Inhibitors of Type I Protein Arginine Methyltransferases into Potent and Selective Inhibitors of Protein Arginine Methyltransferase 4 through a Deconstruction–Reconstruction and Fragment-Growing Approach” (Journal of Medicinal Chemistry, 2022)
Where two headings read alike, the source gives them in different places.

Assays:
PRMT3 = PRMT3 (Homo sapiens, UniProt O60678); assay: Radioisotope-based filter-binding (HotSpot) assay, PRMT3; conditions: radioisotope-based filter assay
Protocol: (§1) Then, ^3H-SAM (final concentration 1 μM) was delivered into the reaction mixture to initiate the reaction. After incubation for 60 min at 30 °C, the reaction mixture was delivered to filter paper for detection (as assessed by scintillation). Data were analyzed using Excel and GraphPad Prism 6.0 software (GraphPad Software Inc., San Diego, CA) for IC50 curve fits using sigmoidal dose vs response-variable slope (four parameters) equations.

PRMT5/MEP50 complex = PRMT5/MEP50 complex (Homo sapiens, UniProt O14744); assay: Radioisotope-based filter-binding (HotSpot) assay, PRMT5; conditions: read-out: IC50 (μM) PRMT5; radioisotope-based filter assay; 5 μM histone H2A; 1 μM 3H-SAM
Protocol: as §1

PRMT6 = PRMT6 (Homo sapiens, UniProt Q96LA8); assay: Radioisotope-based filter-binding (HotSpot) assay, PRMT6; conditions: radioisotope-based filter assay
Protocol: as §1

PRMT4 = target: T1, PRMT4 (Homo sapiens, UniProt Q86X55); assay: Radioisotope-based filter-binding (HotSpot) assay, PRMT4; conditions: for IC50: radioisotope-based filter assay
T1 sequence (Q86X55 2-608): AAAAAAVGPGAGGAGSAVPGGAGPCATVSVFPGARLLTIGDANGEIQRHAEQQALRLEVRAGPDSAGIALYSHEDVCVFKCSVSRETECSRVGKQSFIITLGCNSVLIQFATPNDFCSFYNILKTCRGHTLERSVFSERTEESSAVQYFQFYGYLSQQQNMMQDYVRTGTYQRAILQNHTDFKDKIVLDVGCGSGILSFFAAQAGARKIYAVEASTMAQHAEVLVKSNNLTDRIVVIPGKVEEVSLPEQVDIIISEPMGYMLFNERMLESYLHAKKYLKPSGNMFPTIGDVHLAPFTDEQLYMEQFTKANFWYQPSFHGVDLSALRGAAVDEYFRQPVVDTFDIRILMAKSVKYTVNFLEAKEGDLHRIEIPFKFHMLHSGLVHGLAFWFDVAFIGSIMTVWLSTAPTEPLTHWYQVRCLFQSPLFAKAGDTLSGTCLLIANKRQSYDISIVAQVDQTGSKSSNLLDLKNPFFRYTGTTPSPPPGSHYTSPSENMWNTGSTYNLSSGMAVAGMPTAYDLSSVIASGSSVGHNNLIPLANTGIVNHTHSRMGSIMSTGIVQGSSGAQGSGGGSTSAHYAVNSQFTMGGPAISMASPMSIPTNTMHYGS
Protocol: as §1

[1] = target: T2, human PRMT4 (full length) (Homo sapiens, UniProt Q86X55); assay: SPR binding to immobilized PRMT4
T2 construct: Full-length recombinant PRMT4 (Active motif, # 81107); purchased Active motif # 81107
T2 sequence (Q86X55 1-608): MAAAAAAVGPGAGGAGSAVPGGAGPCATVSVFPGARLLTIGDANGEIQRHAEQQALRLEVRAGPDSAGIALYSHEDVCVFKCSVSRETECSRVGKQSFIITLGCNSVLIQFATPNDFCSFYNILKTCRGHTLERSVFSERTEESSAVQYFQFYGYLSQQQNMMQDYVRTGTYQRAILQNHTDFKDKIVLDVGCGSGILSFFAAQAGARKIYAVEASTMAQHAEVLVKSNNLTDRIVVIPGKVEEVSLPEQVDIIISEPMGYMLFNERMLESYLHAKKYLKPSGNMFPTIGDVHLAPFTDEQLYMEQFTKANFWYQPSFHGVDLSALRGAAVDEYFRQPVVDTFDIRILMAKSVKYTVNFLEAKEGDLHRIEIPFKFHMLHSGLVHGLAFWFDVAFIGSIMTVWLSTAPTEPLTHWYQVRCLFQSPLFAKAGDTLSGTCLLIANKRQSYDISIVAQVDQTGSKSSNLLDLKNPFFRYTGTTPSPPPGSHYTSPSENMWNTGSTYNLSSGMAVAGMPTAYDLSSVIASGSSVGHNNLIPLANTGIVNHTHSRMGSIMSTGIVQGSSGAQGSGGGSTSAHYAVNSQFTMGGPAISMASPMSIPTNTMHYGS
Outline: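 Full-length human PRMT4 amine-coupled to a Biacore chip; compounds injected in 12 dilutions from 640 to 10 nM in PBS pH 7.4 with 0.05% Tween-20 at 25 °C. Association and dissociation each monitored 90 s at 30 μL/min; KD, kon and koff from 1:1 Langmuir global fit.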

[2] = Parallel artificial membrane permeability assay (PAMPA); assay type: in vitro ADME; conditions: phosphate buffer pH 7.4, donor 0.2 mM, 24 h at room temperature
Protocol: A donor solution (0.2 mM) was prepared by diluting 20 mM dimethyl sulfoxide (DMSO) compound stock solution using phosphate buffer (pH 7.4, 0.01 M). Filters were coated with 5 μL of a 1% (w/v) dodecane solution of L-α-phosphatidylcholine. Donor solution (150 μL) was added to each well of the filter plate. To each well of the acceptor plate, 300 μL of solution (5% DMSO in phosphate buffer) was added. […] The sandwich was incubated for 24 h at room temperature under gentle shaking. After the incubation time, the sandwich plates were separated, and 250 μL of the acceptor plate was transferred to a UV quartz microtiter plate and measured by UV spectroscopy, using a Multiskan GO microplate spectrophotometer (Thermo Fisher Scientific) at 250–500 nm at a step of 5 nm. Reference solutions (250 μL) were prepared diluting the sample stock solutions to the same concentration as that with no membrane barrier.

PRMT1 = PRMT1 (Homo sapiens, UniProt Q99873); assay: Radioisotope-based filter-binding (HotSpot) assay, PRMT1; conditions: radioisotope-based filter assay
PRMT1, sequence (Q99873 2-371): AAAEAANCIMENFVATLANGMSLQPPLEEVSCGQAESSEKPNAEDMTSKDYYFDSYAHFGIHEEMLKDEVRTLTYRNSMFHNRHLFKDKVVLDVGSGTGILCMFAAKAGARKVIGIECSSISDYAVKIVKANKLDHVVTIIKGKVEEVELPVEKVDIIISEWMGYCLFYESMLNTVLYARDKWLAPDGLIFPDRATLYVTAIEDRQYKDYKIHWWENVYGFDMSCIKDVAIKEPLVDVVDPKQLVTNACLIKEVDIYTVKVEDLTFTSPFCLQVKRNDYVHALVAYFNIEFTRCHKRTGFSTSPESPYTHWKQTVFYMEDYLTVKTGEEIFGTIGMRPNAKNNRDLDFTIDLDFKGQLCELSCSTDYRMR
Protocol: as §1

PRMT3, sequence (O60678 2-531): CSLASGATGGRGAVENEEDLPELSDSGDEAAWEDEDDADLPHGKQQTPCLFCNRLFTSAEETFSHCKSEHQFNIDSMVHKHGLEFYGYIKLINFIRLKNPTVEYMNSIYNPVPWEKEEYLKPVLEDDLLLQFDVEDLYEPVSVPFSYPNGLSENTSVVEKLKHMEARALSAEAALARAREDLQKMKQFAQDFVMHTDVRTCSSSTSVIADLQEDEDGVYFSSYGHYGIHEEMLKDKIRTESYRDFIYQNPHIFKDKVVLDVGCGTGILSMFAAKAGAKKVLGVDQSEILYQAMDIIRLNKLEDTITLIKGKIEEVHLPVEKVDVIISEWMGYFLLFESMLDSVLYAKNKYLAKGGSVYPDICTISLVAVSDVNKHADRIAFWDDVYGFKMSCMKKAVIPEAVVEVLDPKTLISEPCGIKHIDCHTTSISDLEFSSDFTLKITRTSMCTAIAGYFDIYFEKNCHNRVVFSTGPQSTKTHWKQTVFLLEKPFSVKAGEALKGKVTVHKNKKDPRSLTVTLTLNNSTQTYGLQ
PRMT6, sequence (Q96LA8 2-375): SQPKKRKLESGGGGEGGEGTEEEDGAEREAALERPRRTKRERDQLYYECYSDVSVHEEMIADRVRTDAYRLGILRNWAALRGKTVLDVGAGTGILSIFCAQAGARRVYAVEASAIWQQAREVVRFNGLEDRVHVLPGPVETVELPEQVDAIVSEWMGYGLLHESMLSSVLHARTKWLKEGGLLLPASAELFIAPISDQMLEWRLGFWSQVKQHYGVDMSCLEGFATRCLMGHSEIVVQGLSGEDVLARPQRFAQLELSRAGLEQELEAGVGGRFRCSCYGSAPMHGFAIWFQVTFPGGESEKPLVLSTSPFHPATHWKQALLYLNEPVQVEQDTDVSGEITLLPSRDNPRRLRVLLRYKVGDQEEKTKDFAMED
PRMT5/MEP50 complex, sequence (O14744 2-637): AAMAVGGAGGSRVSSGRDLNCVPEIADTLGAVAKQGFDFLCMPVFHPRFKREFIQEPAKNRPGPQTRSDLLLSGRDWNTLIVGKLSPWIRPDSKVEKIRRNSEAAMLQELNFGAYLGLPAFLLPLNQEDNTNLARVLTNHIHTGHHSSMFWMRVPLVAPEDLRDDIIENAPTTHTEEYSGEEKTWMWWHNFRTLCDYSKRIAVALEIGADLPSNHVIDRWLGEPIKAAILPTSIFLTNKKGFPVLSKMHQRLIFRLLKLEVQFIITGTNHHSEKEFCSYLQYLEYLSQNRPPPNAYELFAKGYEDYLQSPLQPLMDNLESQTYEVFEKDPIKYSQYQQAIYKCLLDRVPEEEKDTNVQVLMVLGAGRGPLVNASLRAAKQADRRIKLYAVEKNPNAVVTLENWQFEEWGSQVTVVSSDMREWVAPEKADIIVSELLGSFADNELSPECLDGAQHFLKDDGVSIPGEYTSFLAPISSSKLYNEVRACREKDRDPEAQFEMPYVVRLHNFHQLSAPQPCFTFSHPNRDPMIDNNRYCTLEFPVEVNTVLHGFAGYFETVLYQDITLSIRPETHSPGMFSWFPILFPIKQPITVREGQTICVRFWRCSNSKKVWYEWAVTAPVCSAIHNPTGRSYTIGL
PRMT5/MEP50 complex, sequence (Q9BQA1 2-342 partner limits assumed): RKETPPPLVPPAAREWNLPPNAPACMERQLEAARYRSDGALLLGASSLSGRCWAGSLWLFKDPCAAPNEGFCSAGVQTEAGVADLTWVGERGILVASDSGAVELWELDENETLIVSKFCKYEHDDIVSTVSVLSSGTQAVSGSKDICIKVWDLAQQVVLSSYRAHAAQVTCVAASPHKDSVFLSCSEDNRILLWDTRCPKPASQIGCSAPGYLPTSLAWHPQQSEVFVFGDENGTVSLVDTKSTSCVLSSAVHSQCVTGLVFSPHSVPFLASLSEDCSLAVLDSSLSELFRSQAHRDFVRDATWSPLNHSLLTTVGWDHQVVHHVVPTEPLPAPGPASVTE

SMILES: COC(=O)c1cc(O)c2cc(NC(=O)NCCCCNC(=N)NCCC[C@H]3O[C@@H](n4cnc5c(N)ncnc54)[C@H](O)[C@@H]3O)ccc2c1 [12g, Methyl 6-(3-(4-(3-(3-((2R,3S,4R,5R)-5-(6-Amino-9H-purin-9-yl)-3,4-dihydroxytetrahydrofuran-2-yl)propyl)guanidino)butyl)ureido)-4-hydroxy-2-naphthoate]
- IC50 (PRMT3; read-out: IC50 (μM) PRMT3, 5 μM histone H4, 1 μM 3H-SAM): 13.3 µM
- IC50 (PRMT3; read-out: IC50 PRMT3 (Figure 5 heatmap)): 13.2 µM
- IC50 (PRMT5/MEP50 complex): 0.778 µM
- IC50 (PRMT6; read-out: IC50 (μM) PRMT6, 5 μM GST-GAR, 1 μM 3H-SAM): 4.34 µM
- IC50 (PRMT6; read-out: IC50 PRMT6 (Figure 5 heatmap)): 4.34 µM
- LE (PRMT4; ligand efficiency for PRMT4 calculated from IC50 as a surrogate for KD): 0.24
- selectivity index for PRMT4 vs other PRMTs: PRMT1 (PRMT4; ratio IC50 PRMT1 / IC50 PRMT4, rounded to nearest integer): 214
- selectivity index for PRMT4 vs other PRMTs: PRMT3 (PRMT4; ratio IC50 PRMT3 / IC50 PRMT4): 1583
- selectivity index for PRMT4 vs other PRMTs: PRMT5 (PRMT4; ratio IC50 PRMT5 / IC50 PRMT4): 93
- selectivity index for PRMT4 vs other PRMTs: PRMT6 (PRMT4; ratio IC50 PRMT6 / IC50 PRMT4): 517
- selectivity index for PRMT4 vs other PRMTs: PRMT7 (PRMT4; ratio IC50 PRMT7 / IC50 PRMT4): 557
- selectivity index for PRMT4 vs other PRMTs: PRMT8 (PRMT4; ratio IC50 PRMT8 / IC50 PRMT4): 168
- IC50 (PRMT4; read-out: IC50 (μM) PRMT4, 5 μM histone H3, 1 μM 3H-SAM): 0.0084 µM
- IC50 (PRMT4; read-out: IC50 PRMT4 (Figure 5 heatmap)): 0.008 µM
- SI PRMT1 (Figure 5 heatmap) (PRMT4; selectivity index for PRMT4 over PRMT1): 214 fold
- SI PRMT3 (Figure 5 heatmap) (PRMT4; selectivity index for PRMT4 over PRMT3): 1,583 fold
- SI PRMT5 (Figure 5 heatmap) (PRMT4; selectivity index for PRMT4 over PRMT5): 93 fold
- SI PRMT6 (Figure 5 heatmap) (PRMT4; selectivity index for PRMT4 over PRMT6): 517 fold
- SI PRMT7 (Figure 5 heatmap) (PRMT4; selectivity index for PRMT4 over PRMT7): 557 fold
- SI PRMT8 (Figure 5 heatmap) (PRMT4; selectivity index for PRMT4 over PRMT8): 168 fold
- koff ([1]; SPR, immobilized PRMT4): 0.013 s⁻¹
- Kd ([1]; SPR, immobilized PRMT4, 25 °C, KD from ratio koff/kon): 51.7 nM
- kon ([1]; SPR, immobilized PRMT4, read-out: kon): 250000 M⁻¹ s⁻¹
- τR ([1]; in vitro residence time, τ = 1/koff): 76.9 s
- SPR tR for PRMT4 ([1]; supplementary csv): 76.9 s
- kon ([1]; supplementary csv, read-out: SPR KON for PRMT4): 247000 M⁻¹ s⁻¹
- Papp at 24 h, 0.2 mM [2]: 0.039 ×10⁻⁶ cm/s
- IC50 (PRMT1; read-out: IC50 (μM) PRMT1, 5 μM histone H4, 1 μM 3H-SAM): 1.8 µM
- IC50 (PRMT1; read-out: IC50 PRMT1 (Figure 5 heatmap)): 1.79 µM
